Results reported in ChEMBL document CHEMBL1201862, “PubChem BioAssay data set” (2004).
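Protocol summary: plate cells (96-well), add compound at 5 concentrations, incubate 48 h, interpolate endpoints linearly. GI50 = concentration required for 50% inhibition of growth.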 Activity calls are given as the source filed them. No stated cut-off is given here; in the data, active = GI50 up to about 1.1 µM and inactive = higher.

How the values were obtained:
Assay in all cases: NCI tumour cell line growth inhibition, 48 h
[1] = tested on: DLD-1
[2] = tested on: DMS-114
[3] = tested on: HOP-18
[4] = tested on: KM-20L2
[5] = tested on: LXFL 529
[6] = tested on: M19-MEL
[7] = tested on: SNB-78
[8] = tested on: XF498
[9] = tested on: RXF 631

Row | Structure (SMILES) | GI50 [1] | GI50 [2] | GI50 [3] | GI50 [4] | GI50 [5] | GI50 [6] | GI50 [7] | GI50 [8] | GI50 [9]
1 | O=C1Nc2ccccc2N/C1=C\C(=O)c1ccccc1O | > 100 µM (inactive) | > 100 µM (inactive) | > 100 µM (inactive) | > 100 µM (inactive) | > 100 µM (inactive) | > 100 µM (inactive) | > 100 µM (inactive) | – | –
2 | O=C1NC2(CCCCCC2)C2CCCCCCC12O (configuration not stated) | > 100 µM (inactive) | > 100 µM (inactive) | > 100 µM (inactive) | – | > 100 µM (inactive) | > 100 µM (inactive) | > 100 µM (inactive) | > 100 µM (inactive) | –
3 | COc1cc2c(cc1OC)CC(=O)Nc1cc(OC)c(OC)cc1CC2 | 40.3 µM (inactive) | 24.3 µM (inactive) | > 100 µM (inactive) | 48.4 µM (inactive) | > 73.3 µM (inactive) | 31.8 µM (inactive) | > 95.5 µM (inactive) | > 100 µM (inactive) | > 75.9 µM (inactive)
4 | C[C@]12CCC(=O)C(O)=C1CC[C@@H]1C2CC[C@]2(C)Nc3c(cnn3-c3ccccc3)CC12 (some centres not stated) | > 100 µM (inactive) | – | – | 56.5 µM (inactive) | 42.6 µM (inactive) | > 100 µM (inactive) | > 100 µM (inactive) | > 100 µM (inactive) | 29.9 µM (inactive)
5 | CC(=O)C1C(c2ccccc2)C2(C)OC(=O)C(C#N)C12C (configuration not stated) | > 100 µM (inactive) | > 100 µM (inactive) | > 100 µM (inactive) | > 100 µM (inactive) | > 100 µM (inactive) | > 100 µM (inactive) | > 100 µM (inactive) | > 100 µM (inactive) | –
6 | NC(CCCNCc1ccccc1O)C(=O)O (configuration not stated) | > 100 µM (inactive) | > 100 µM (inactive) | > 100 µM (inactive) | > 100 µM (inactive) | > 100 µM (inactive) | > 100 µM (inactive) | > 100 µM (inactive) | – | –
7 | CCOC(=O)C(C(=O)OCC)=C1C=C(c2ccccc2)c2ccccc21 | 10.7 µM (inactive) | 54.6 µM (inactive) | – | 31.6 µM (inactive) | 53.2 µM (inactive) | 52.5 µM (inactive) | > 100 µM (inactive) | 70.5 µM (inactive) | –
8 | CC(=O)Nc1ccc(S(=O)(=O)N/N=C/CN2C(=O)c3ccccc3C2=O)cc1 | > 100 µM (inactive) | > 100 µM (inactive) | – | > 100 µM (inactive) | > 100 µM (inactive) | > 100 µM (inactive) | – | > 100 µM (inactive) | –
9 | Cc1ccc(-c2cc(=O)c3cc(C)c(C)c(C(=O)O)c3o2)cc1N | > 100 µM (inactive) | > 100 µM (inactive) | > 100 µM (inactive) | > 100 µM (inactive) | > 100 µM (inactive) | > 100 µM (inactive) | > 100 µM (inactive) | > 100 µM (inactive) | > 100 µM (inactive)
10 | CCC(=C(c1ccc(OCc2ccccc2)cc1)c1ccc(OCc2ccccc2)cc1)c1ccc(OC)cc1 | > 100 µM (inactive) | > 100 µM (inactive) | – | > 100 µM (inactive) | > 100 µM (inactive) | > 100 µM (inactive) | > 100 µM (inactive) | > 100 µM (inactive) | –
11 | O=c1c2cccc3cccc(c4oc5c6cccc7cccc(c(=O)c5c14)c76)c32 | 15.1 µM (inactive) | 12.5 µM (inactive) | 14.6 µM (inactive) | 15.4 µM (inactive) | 11.1 µM (inactive) | 12 µM (inactive) | 13.7 µM (inactive) | – | 11.4 µM (inactive)
12 | COCC(=O)OC1CCn2c1nc1c2C(=O)C(C)=C(NC(C)=O)C1=O (configuration not stated) | 12.9 µM (inactive) | 1.82 µM (inactive) | 27.9 µM (inactive) | 20.4 µM (inactive) | 3.35 µM (inactive) | 11.7 µM (inactive) | 1.81 µM (inactive) | 4.41 µM (inactive) | –
13 | O=c1[nH]c(=O)n(C2OC(CO)C(O)C2O)cc1OCc1ccccc1 (configuration not stated) | > 59.8 µM (inactive) | > 57.9 µM (inactive) | > 100 µM (inactive) | > 81.7 µM (inactive) | > 80.4 µM (inactive) | > 95.5 µM (inactive) | > 100 µM (inactive) | > 100 µM (inactive) | > 100 µM (inactive)
14 | CCN(CC)CCN1CCc2c([nH]c3ccccc23)C1c1cccnc1 (configuration not stated) | > 100 µM (inactive) | > 100 µM (inactive) | > 100 µM (inactive) | > 100 µM (inactive) | > 100 µM (inactive) | > 100 µM (inactive) | > 100 µM (inactive) | > 100 µM (inactive) | –
15 | Cc1cc2c(=O)c3ccccc3[nH]c2c(C(=O)O)c1C | > 100 µM (inactive) | > 100 µM (inactive) | – | > 100 µM (inactive) | > 100 µM (inactive) | > 100 µM (inactive) | 36.6 µM (inactive) | > 100 µM (inactive) | –
16 | COc1ccc(C2=Nc3ccccc3N=C(SC)C2)cc1 | 42.8 µM (inactive) | 44.1 µM (inactive) | > 100 µM (inactive) | 41.3 µM (inactive) | 46.1 µM (inactive) | 39.8 µM (inactive) | > 100 µM (inactive) | 37.8 µM (inactive) | 47 µM (inactive)
17 | CN(C)CCNC(=O)c1cccc2nc3c(ccc4ccccc43)nc12 | 1.79 µM (inactive) | 2.69 µM (inactive) | 6.53 µM (inactive) | 1.51 µM (inactive) | 2.51 µM (inactive) | 1.56 µM (inactive) | 5.16 µM (inactive) | – | 1.02 µM (active)
18 | O=CC1CCC=CC1NC(=O)OCc1ccccc1 (configuration not stated) | 27.2 µM (inactive) | 22.7 µM (inactive) | > 100 µM (inactive) | – | 44.5 µM (inactive) | 41.8 µM (inactive) | 50 µM (inactive) | 44.2 µM (inactive) | –
19 | N#CC(/C(=N/NC(=N)N)C(=O)Nc1ccccc1[N+](=O)[O-])c1nc(-c2ccc([N+](=O)[O-])cc2)cs1 (configuration not stated) | > 100 µM (inactive) | > 100 µM (inactive) | – | > 100 µM (inactive) | > 100 µM (inactive) | > 100 µM (inactive) | > 100 µM (inactive) | > 100 µM (inactive) | –
20 | Cn1cnc2nc(Cl)nc(NC(C)(C)C(C)(C)O)c21 | > 100 µM (inactive) | > 100 µM (inactive) | > 100 µM (inactive) | > 100 µM (inactive) | – | – | > 100 µM (inactive) | > 100 µM (inactive) | –
21 | C=CCNC(=S)N/C=C1\C(=O)Oc2ccccc2C1=O | 41.1 µM (inactive) | 35.2 µM (inactive) | 46.2 µM (inactive) | > 100 µM (inactive) | > 100 µM (inactive) | > 100 µM (inactive) | 43.9 µM (inactive) | 18.9 µM (inactive) | –
22 | O=C(C(=O)c1cc2ccccc2[nH]1)c1cc2ccccc2[nH]1 | > 316 µM (inactive) | > 220 µM (inactive) | – | > 347 µM (inactive) | > 210 µM (inactive) | > 195 µM (inactive) | > 347 µM (inactive) | > 176 µM (inactive) | > 347 µM (inactive)
23 | c1ccc2c(c1)CCCc1cc3ccccc3nc1-2 | > 100 µM (inactive) | 26.9 µM (inactive) | > 100 µM (inactive) | > 100 µM (inactive) | > 100 µM (inactive) | > 100 µM (inactive) | 85.7 µM (inactive) | 53.3 µM (inactive) | –
24 | C/C(CC(=O)Nc1ccc([N+](=O)[O-])cc1)=N\Nc1ccc([N+](=O)[O-])cc1[N+](=O)[O-] | 39.4 µM (inactive) | 48.5 µM (inactive) | – | 32.8 µM (inactive) | 20.9 µM (inactive) | > 100 µM (inactive) | > 100 µM (inactive) | 86.7 µM (inactive) | > 100 µM (inactive)
25 | CC(=O)SC(SC(C)=O)SC(C)=O | > 100 µM (inactive) | 31.1 µM (inactive) | > 100 µM (inactive) | > 100 µM (inactive) | 51.8 µM (inactive) | > 100 µM (inactive) | > 100 µM (inactive) | – | > 100 µM (inactive)
26 | Cc1c(Cl)cccc1NC(=O)C(=O)C1C(=O)CC(C)(C)CC1=O | > 100 µM (inactive) | > 100 µM (inactive) | > 100 µM (inactive) | > 100 µM (inactive) | > 100 µM (inactive) | > 100 µM (inactive) | > 100 µM (inactive) | – | > 100 µM (inactive)
27 | C=CC(=O)Nc1ccccc1CC(c1c[nH]c2ccccc12)c1c[nH]c2ccccc12 | – | 15.5 µM (inactive) | – | – | 16.1 µM (inactive) | 15.6 µM (inactive) | 16.3 µM (inactive) | 21.1 µM (inactive) | 16.7 µM (inactive)
28 | CCCCCCCCC(O)C#CC(N)=O (configuration not stated) | 10.2 µM (inactive) | 3.34 µM (inactive) | 12.6 µM (inactive) | 15.6 µM (inactive) | 11.2 µM (inactive) | 11.8 µM (inactive) | 15.6 µM (inactive) | 17.1 µM (inactive) | 11.7 µM (inactive)
29 | O=C(NCCO)c1ccc([N+](=O)[O-])cc1 | > 100 µM (inactive) | > 100 µM (inactive) | – | > 100 µM (inactive) | > 100 µM (inactive) | > 100 µM (inactive) | > 100 µM (inactive) | > 100 µM (inactive) | > 100 µM (inactive)
